The test system of this test is plants. The test can be described thus: general screening of the herbicidal effect. The format is in vivo. Conditions: 10% w/w; compared with Roundup RTU and Bayer Advanced (10% and 100% Label Rate) and untreated control; FIG. 1. On the procedure: A general screening of the herbicidal effect of the following compounds was carried out: Bayer Advanced® (100% Label Rate), Bayer Advanced® (10% Lable Rate), UTC (=untreated control), Diethyl Oxalacetate (10% w/w), Roundup® RTU (RTU=ready to use) (10% Label Rate) and Roundup® RTU (100% Label Rate).

Each structure is given as a SMILES string.

For the compound `CCOC(=O)/C=C(\O)C(=O)OCC` [Diethyl Oxalacetate], the herbicidal activity result is “comparable to well-known herbicide products such as Roundup® and Bayer Advanced®”.

The values are drawn from patent US12514249B2, “Oxaloacetate and related compounds as herbicidal agents” (Verdesian Life Sciences U.S., LLC, priority 2020, dated 2026).
